# Source: patent US20250084061A1, “SULFONYL FUNCTIONAL COMPOUND, METHODS AND USES THEREOF” (Hubei Biopesticide Engineering Research Centre, priority 2023, published 2025)
# Like-named read-outs stand apart in the source and are kept apart here.
# How the values were obtained:
# [1] = system: Fusarium culmorum; experiment: Bactericidal (fungicidal) activity by microdilution; type: cell-based
# [2] = system: Rhizoctonia solani; experiment: as above; type: cell-based
# [3] = system: Verticillium dahliae.kieb.; experiment: as above; type: cell-based
# [4] = system: Fusarium oxysporum f. sp. Niveum; experiment: as above; type: cell-based
# [5] = system: Leptosphaeria biglobosa; experiment: as above; type: cell-based
# [6] = system: Colletotrichum gloeobosporioids; experiment: as above; type: cell-based
# [7] = system: Corynespora leaf spot of tomato; experiment: as above; type: cell-based
# [8] = system: Botrytis cinerea; experiment: as above; type: cell-based
# [9] = system: Pythium aphanidermatum; experiment: as above; type: cell-based
# [10] = system: Septoria nodorum Berk.; experiment: as above; type: cell-based
# [11] = system: Plutella xylostella; experiment: Insecticidal activity, artificial feed surface coating method; type: in vivo; details: Plutella xylostella, read-out: Insecticidal activity (mortality rate grade) Plutella xylostella
# How it was run: (§1)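 Artificial diet in 24-well plates, surface-coated with test solution at 500, 250 and 125 mg/L. Each concentration was tested in two replicates (Rep1, Rep2).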
# [12] = system: Heliothis armigera; experiment: as above; type: in vivo; details: Helicoverpa armigera, read-out: Insecticidal activity (mortality rate grade) Heliothis armigera
# How it was run: as §1
# [13] = system: Magnaporthe oryzae; type: cell-based
# [14] = system: Thanatephorus cucumeris; experiment: Bactericidal (fungicidal) activity by microdilution; type: cell-based
# [15] = system: Alternaria kikuchiana; experiment: as above; type: cell-based
# [16] = system: Aphiscraccivora; experiment: Insecticidal activity, dipping method; type: in vivo
# How it was run: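 Aphids tested by dipping in ethanol-dissolved compound diluted to 500, 250 or 125 mg/L with 0.1 mL/L Tween-80, two replicates plus blank control. Mortality scored on a 0/3/5/7/9 scale for 0–30, 30–50, 50–70, 70–90 and 90–100%.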
smiles,measurement,setting,value
COC(=O)Nc1nc2ccccc2n1CCCCS(=O)(=O)O [III-3],Fungicidal activity (antibacterial rate grade) Fusarium culmorum,[1]; 12.5 mg/L,7 (The antibacterial rate of 70˜90% could be set as 7 if the target has small amounts of growth)
same,Fungicidal activity (antibacterial rate grade) Fusarium culmorum,[1]; 25 mg/L,9 (The antibacterial rate of 90˜100% could be set as 9 if the target has totally no growth)
same,Fungicidal activity (antibacterial rate grade) Fusarium culmorum,[1]; 50 mg/L,9 (The antibacterial rate of 90˜100% could be set as 9 if the target has totally no growth)
same,Fungicidal activity (antibacterial rate grade) Fusarium culmorum,[1]; 100 mg/L,9 (The antibacterial rate of 90˜100% could be set as 9 if the target has totally no growth)
same,Fungicidal activity (antibacterial rate grade) Rhizoctonia solani,[2]; 12.5 mg/L,3 (The antibacterial rate of 0˜30% could be set as 3 if the growth of the target is normal and consistent with that of the blank control)
same,Fungicidal activity (antibacterial rate grade) Rhizoctonia solani,[2]; 25 mg/L,3 (The antibacterial rate of 0˜30% could be set as 3 if the growth of the target is normal and consistent with that of the blank control)
same,Fungicidal activity (antibacterial rate grade) Rhizoctonia solani,[2]; 50 mg/L,3 (The antibacterial rate of 0˜30% could be set as 3 if the growth of the target is normal and consistent with that of the blank control)
same,Fungicidal activity (antibacterial rate grade) Rhizoctonia solani,[2]; 100 mg/L,3 (The antibacterial rate of 0˜30% could be set as 3 if the growth of the target is normal and consistent with that of the blank control)
same,Fungicidal activity (antibacterial rate grade) Verticillium dahliae. kieb.,[3]; 12.5 mg/L,9 (The antibacterial rate of 90˜100% could be set as 9 if the target has totally no growth)
same,Fungicidal activity (antibacterial rate grade) Verticillium dahliae. kieb.,[3]; 25 mg/L,9 (The antibacterial rate of 90˜100% could be set as 9 if the target has totally no growth)
same,Fungicidal activity (antibacterial rate grade) Verticillium dahliae. kieb.,[3]; 50 mg/L,9 (The antibacterial rate of 90˜100% could be set as 9 if the target has totally no growth)
same,Fungicidal activity (antibacterial rate grade) Verticillium dahliae. kieb.,[3]; 100 mg/L,9 (The antibacterial rate of 90˜100% could be set as 9 if the target has totally no growth)
same,Fungicidal activity (antibacterial rate grade) Fusarium oxysporum f. sp. Niveum,[4]; 12.5 mg/L,9 (The antibacterial rate of 90˜100% could be set as 9 if the target has totally no growth)
same,Fungicidal activity (antibacterial rate grade) Fusarium oxysporum f. sp. Niveum,[4]; 25 mg/L,9 (The antibacterial rate of 90˜100% could be set as 9 if the target has totally no growth)
same,Fungicidal activity (antibacterial rate grade) Fusarium oxysporum f. sp. Niveum,[4]; 50 mg/L,9 (The antibacterial rate of 90˜100% could be set as 9 if the target has totally no growth)
same,Fungicidal activity (antibacterial rate grade) Fusarium oxysporum f. sp. Niveum,[4]; 100 mg/L,9 (The antibacterial rate of 90˜100% could be set as 9 if the target has totally no growth)
same,Fungicidal activity (antibacterial rate grade) Leptosphaeria biglobosa,[5]; 12.5 mg/L,9 (The antibacterial rate of 90˜100% could be set as 9 if the target has totally no growth)
same,Fungicidal activity (antibacterial rate grade) Leptosphaeria biglobosa,[5]; 25 mg/L,9 (The antibacterial rate of 90˜100% could be set as 9 if the target has totally no growth)
same,Fungicidal activity (antibacterial rate grade) Leptosphaeria biglobosa,[5]; 50 mg/L,9 (The antibacterial rate of 90˜100% could be set as 9 if the target has totally no growth)
same,Fungicidal activity (antibacterial rate grade) Leptosphaeria biglobosa,[5]; 100 mg/L,9 (The antibacterial rate of 90˜100% could be set as 9 if the target has totally no growth)
same,Fungicidal activity (antibacterial rate grade) Colletotrichum gloeobosporioids,[6]; 12.5 mg/L,9 (The antibacterial rate of 90˜100% could be set as 9 if the target has totally no growth)
same,Fungicidal activity (antibacterial rate grade) Colletotrichum gloeobosporioids,[6]; 25 mg/L,9 (The antibacterial rate of 90˜100% could be set as 9 if the target has totally no growth)
same,Fungicidal activity (antibacterial rate grade) Colletotrichum gloeobosporioids,[6]; 50 mg/L,9 (The antibacterial rate of 90˜100% could be set as 9 if the target has totally no growth)
same,Fungicidal activity (antibacterial rate grade) Colletotrichum gloeobosporioids,[6]; 100 mg/L,9 (The antibacterial rate of 90˜100% could be set as 9 if the target has totally no growth)
same,Fungicidal activity (antibacterial rate grade) Corynespora leaf spot of tomato,[7]; 12.5 mg/L,3 (The antibacterial rate of 0˜30% could be set as 3 if the growth of the target is normal and consistent with that of the blank control)
same,Fungicidal activity (antibacterial rate grade) Corynespora leaf spot of tomato,[7]; 25 mg/L,3 (The antibacterial rate of 0˜30% could be set as 3 if the growth of the target is normal and consistent with that of the blank control)
same,Fungicidal activity (antibacterial rate grade) Corynespora leaf spot of tomato,[7]; 50 mg/L,7 (The antibacterial rate of 70˜90% could be set as 7 if the target has small amounts of growth)
same,Fungicidal activity (antibacterial rate grade) Corynespora leaf spot of tomato,[7]; 100 mg/L,7 (The antibacterial rate of 70˜90% could be set as 7 if the target has small amounts of growth)
same,Fungicidal activity (antibacterial rate grade) Botrytis cinerea,[8]; 12.5 mg/L,3 (The antibacterial rate of 0˜30% could be set as 3 if the growth of the target is normal and consistent with that of the blank control)
same,Fungicidal activity (antibacterial rate grade) Botrytis cinerea,[8]; 25 mg/L,3 (The antibacterial rate of 0˜30% could be set as 3 if the growth of the target is normal and consistent with that of the blank control)
same,Fungicidal activity (antibacterial rate grade) Botrytis cinerea,[8]; 50 mg/L,3 (The antibacterial rate of 0˜30% could be set as 3 if the growth of the target is normal and consistent with that of the blank control)
same,Fungicidal activity (antibacterial rate grade) Botrytis cinerea,[8]; 100 mg/L,3 (The antibacterial rate of 0˜30% could be set as 3 if the growth of the target is normal and consistent with that of the blank control)
same,Fungicidal activity (antibacterial rate grade) Pythium aphanidematum,[9]; 12.5 mg/L,3 (The antibacterial rate of 0˜30% could be set as 3 if the growth of the target is normal and consistent with that of the blank control)
same,Fungicidal activity (antibacterial rate grade) Pythium aphanidematum,[9]; 25 mg/L,3 (The antibacterial rate of 0˜30% could be set as 3 if the growth of the target is normal and consistent with that of the blank control)
same,Fungicidal activity (antibacterial rate grade) Pythium aphanidematum,[9]; 50 mg/L,3 (The antibacterial rate of 0˜30% could be set as 3 if the growth of the target is normal and consistent with that of the blank control)
same,Fungicidal activity (antibacterial rate grade) Pythium aphanidematum,[9]; 100 mg/L,3 (The antibacterial rate of 0˜30% could be set as 3 if the growth of the target is normal and consistent with that of the blank control)
same,Fungicidal activity (antibacterial rate grade) Septoria nodorum Berk.,[10]; 12.5 mg/L,9 (The antibacterial rate of 90˜100% could be set as 9 if the target has totally no growth)
same,Fungicidal activity (antibacterial rate grade) Septoria nodorum Berk.,[10]; 25 mg/L,9 (The antibacterial rate of 90˜100% could be set as 9 if the target has totally no growth)
same,Fungicidal activity (antibacterial rate grade) Septoria nodorum Berk.,[10]; 50 mg/L,9 (The antibacterial rate of 90˜100% could be set as 9 if the target has totally no growth)
same,Fungicidal activity (antibacterial rate grade) Septoria nodorum Berk.,[10]; 100 mg/L,9 (The antibacterial rate of 90˜100% could be set as 9 if the target has totally no growth)
same,mortality at 125 µg/mL,[11]; 125 mg/L test solution,0 to 30%
same,mortality at 250 µg/mL,[11]; 250 mg/L test solution,0 to 30%
same,mortality at 500 µg/mL,[11]; 500 mg/L test solution,0 to 30%
same,mortality at 125 µg/mL,[12]; 125 mg/L test solution,0 to 30%
same,mortality at 250 µg/mL,[12]; 250 mg/L test solution,0 to 30%
same,mortality at 500 µg/mL,[12]; 500 mg/L test solution,0 to 30%
same,Fungicidal activity (antibacterial rate grade) Magnaporthe oryzae,[13]; 12.5 mg/L,9 (The antibacterial rate of 90˜100% could be set as 9 if the target has totally no growth)
same,Fungicidal activity (antibacterial rate grade) Magnaporthe oryzae,[13]; 25 mg/L,9 (The antibacterial rate of 90˜100% could be set as 9 if the target has totally no growth)
same,Fungicidal activity (antibacterial rate grade) Magnaporthe oryzae,[13]; 50 mg/L,9 (The antibacterial rate of 90˜100% could be set as 9 if the target has totally no growth)
same,Fungicidal activity (antibacterial rate grade) Magnaporthe oryzae,[13]; 100 mg/L,9 (The antibacterial rate of 90˜100% could be set as 9 if the target has totally no growth)
same,Fungicidal activity (antibacterial rate grade) Thanatephorus cucumeris,[14]; 12.5 mg/L,9 (The antibacterial rate of 90˜100% could be set as 9 if the target has totally no growth)
same,Fungicidal activity (antibacterial rate grade) Thanatephorus cucumeris,[14]; 25 mg/L,9 (The antibacterial rate of 90˜100% could be set as 9 if the target has totally no growth)
same,Fungicidal activity (antibacterial rate grade) Thanatephorus cucumeris,[14]; 50 mg/L,9 (The antibacterial rate of 90˜100% could be set as 9 if the target has totally no growth)
same,Fungicidal activity (antibacterial rate grade) Thanatephorus cucumeris,[14]; 100 mg/L,9 (The antibacterial rate of 90˜100% could be set as 9 if the target has totally no growth)
same,Fungicidal activity (antibacterial rate grade) Alternaria kikuchiana,[15]; 12.5 mg/L,3 (The antibacterial rate of 0˜30% could be set as 3 if the growth of the target is normal and consistent with that of the blank control)
same,Fungicidal activity (antibacterial rate grade) Alternaria kikuchiana,[15]; 25 mg/L,3 (The antibacterial rate of 0˜30% could be set as 3 if the growth of the target is normal and consistent with that of the blank control)
same,Fungicidal activity (antibacterial rate grade) Alternaria kikuchiana,[15]; 50 mg/L,3 (The antibacterial rate of 0˜30% could be set as 3 if the growth of the target is normal and consistent with that of the blank control)
same,Fungicidal activity (antibacterial rate grade) Alternaria kikuchiana,[15]; 100 mg/L,3 (The antibacterial rate of 0˜30% could be set as 3 if the growth of the target is normal and consistent with that of the blank control)
same,Insecticidal activity (mortality rate grade) Aphiscraccivora,[16]; 125 mg/L test solution,0 (mortality rate of 0˜30%)
same,Insecticidal activity (mortality rate grade) Aphiscraccivora,[16]; 250 mg/L test solution,0 (mortality rate of 0˜30%)
same,Insecticidal activity (mortality rate grade) Aphiscraccivora,[16]; 500 mg/L test solution,0 (mortality rate of 0˜30%)
